Test results as given in patent US11572341B2, “Biguanide compound and use thereof” (ImmunoMet Therapeutics Inc., priority 2014, dated 2023).
Where a name gives a salt, the structure may show the parent alone.

Legend:
HCT116 cells = experiment: Inhibitory effect against cancer cell proliferation (MTT); assay type: cell-based, human; settings: Homo sapiens, HCT-116; HCT116, MTT, 48 hours; read-out: IC50 (uM) @ HCT116
Method: The formazane crystals thus formed were dissolved using dimethyl sulfoxide (DMSO) and absorbance of the solution was measured at 560 nm. After culturing for 48 hours, […] synthesized in Examples was indicated as cell viability (%) according to each treated concentration.

AMPKa [pT172] = experiment: AMPKa activation [pT172] in MCF7 cell; assay type: cell-based

| SMILES | IC50 (HCT116 cells) [µM] | AMPKa activation [pT172] (Unit/ml) @ MCF7 cell (AMPKa [pT172]; 5 uM) [Unit/ml] | AMPKa activation [pT172] (Unit/ml) @ MCF7 cell (AMPKa [pT172]; 10 uM) [Unit/ml] | AMPKa activation [pT172] (Unit/ml) @ MCF7 cell (AMPKa [pT172]; 50 uM) |
| --- | --- | --- | --- | --- |
| C/N=C(\NCc1ccccc1)NC(=N)N(C)C [Example 96, N1-benzyl-N2-methyl-N5,N5-dimethyl Biguanide Hydrochloride] | 8.2 | – | – | – |
| CN1CCN(C(=N)NC(=N)NCc2cccc(Cl)c2)CC1.Cl [Example 35, N1-(4-methyl)piperazin-N5-3-chloro)benzyl Biguanide Hydrochloride] | > 100 | – | – | – |
| Cl.N=C(NC1=NCCCN1)N1CCCCC1 [Example 153, N-(1,4,5,6-tetrahydropyrimidin-2-yl)piperidin 1-carboximidamide Hydrochloride] | – | 8.0 | 6.8 | 6.3 Unit/ml |
| CN(C)C(=N)NC(=N)N(C)Cc1cccc2ccccc12.Cl [Example 3, N1,N1-dimethyl-N5-methyl-N5-1-(naphthalen-1-yl)methyl Biguanide Hydrochloride] | – | – | – | 6.2 Unit/ml |
| CCCCN/C(=N\C1CCCCCC1)NC(=N)N.Cl [Example 92, N1-butyl-N2-cycloheptyl Biguanide Hydrochloride] | – | – | – | 21.1 Unit/ml |
| CNC(=N)NC(=N)N.Cl [Example 108, N1-methyl Biguanide Hydrochloride] | – | – | – | 3.9 Unit/ml |
| CC1CCN(C(=N)NC(=N)Nc2ccc(Cl)cc2)CC1.Cl [Example 55, N1-4-methyl)piperidin-N5-(4-chloro)phenyl Biguanide Hydrochloride] | 10.4 | – | – | – |
| Cl.N=C(NC(=N)N1CCCC1)Nc1ccc(Br)cc1 [Example 72] | – | 5.4 | 6.6 | 19.1 Unit/ml |
| N=C(NC(=N)Nc1cccc(Br)c1)Nc1cccc(Br)c1 [Example 11, N1-(3-bromo)phenyl-N5-3-bromo)phenyl Biguanide Hydrochloride] | 4.8 | – | – | – |
| CCOC1CCN(C(=N)NC(=N)Nc2cccc(OC(F)(F)F)c2)CC1.Cl [Example 25] | – | 5.8 | 7.0 | cell death |
| CN1CCN(C(=N)NC(=N)Nc2ccc(F)c(F)c2)CC1.Cl [Example 38] | – | 5.9 | 5.1 | 6.4 Unit/ml |
| CN1CCN(C(=N)NC(=N)Nc2ccc(Cl)cc2)CC1.Cl [Example 27, N1-(4-methyl)piperazin-N5-4-chloro)phenyl Biguanide Hydrochloride] | > 100 | – | – | – |
| CC1(C)CC(=O)N=C(NC(=N)N)N1.Cl [Example 152] | – | 7.9 | 8.1 | 8.6 Unit/ml |
| CC1CC(=O)N=C(NC(=N)N)N1.Cl (stereo not shown) [Example 164] | – | 2.89 | 3.43 | 2.77 Unit/ml |
| CN1CCN(C(=N)NC(=N)Nc2ccc(F)c(F)c2)CC1.Cl [Example 38, N1-(4-methylpiperazin-N5-(3,4-difluoro)phenyl Biguanide Hydrochloride] | > 100 | – | – | – |
| Cl.N=C(NC(=N)N1CCCC1)Nc1ccc(Br)cc1 [Example 72, N1-pyrrolidin-N5-4-bromo)phenyl Biguanide Hydrochloride] | 37.7 | – | – | – |
| Cl.N=C(N)NC(=N)Nc1ccc(OC(F)(F)F)cc1 [Example 140] | – | 6.2 | 6.6 | 8.7 Unit/ml |
| Cl.N=C(NC(=N)N1CCCC1)N1CCCCC1 [Example 5, N1-piperidin-N5-pyrrolidine Biguanide Hydrochloride] | – | – | – | 5.8 Unit/ml |
| CC1(C)CC(=O)N=C(NC(=N)N2CCCCC2)N1.Cl [Example 151, N-(6,6-dimethyl-4-oxo-1,4,5,6-tetrahydropyrimidin-2-yl)piperidin-1-carboximidamide Hydrochloride] | – | 9.4 | 7.7 | 11.2 Unit/ml |
| Cl.N=C(N)NC(=N)N1CCOCC1 [Example 118] | – | – | – | 6.0 Unit/ml |
| CN(C)/C(=N\Cc1ccc(F)cc1)NC(=N)N1CCCCC1.Cl [Example 93, N1,N1-dimethyl-N2-(4-fluoro)benzyl-N5-piperidine Biguanide Hydrochloride] | – | – | – | 6.6 Unit/ml |
